Ends that are not written are not given here.

In this assay the test system is interpubic ligament. In words: murine pubic symphysis assay (MPS). It is filed as in vivo, mice. The following applies: for biological activity in the MPS assay (biological dose response comparison): estradiol-primed female mice, subcutaneous injection, ligament measured 18-20 hours later. The procedure: The human relaxin and human relaxin analogs were tested in bioassays. The murine pubic symphysis assay (MPS) uses Charles River albino CFW female mice weighing 18-20 g., J. St. Louis, Can. J. Physiol. Pharmacol. 59, 507-512 (1981). Estradiol priming solution is 5 μg estradiol 17β-cyclopentylpropionate in 0.1 ml peanut oil. Human relaxin dose solutions are at concentrations of 2.5, 5.0, 10.0, 20.0, 40.0, and 80.0 μg/ml in a 1% water solution of benzopurpurine 4B. When mice have been housed for at least six days in quarantine and weigh 18-20 g, each one is given a subcutaneous injection of estradiol priming solution. Exactly seven days later mice are injected subcutaneously with 0.2 ml of the appropriate human relaxin dose solution. Between 18 and 20 hours after the human relaxin injection the mice were sacrificed by cervical dislocation. The interpubic ligament is exposed and measured with a micrometer.
The rat uterine contractility in vitro bioassay measures human relaxin ability to relax smooth muscle in the presence of electrically stimulated contractions, J. St. Louis, (1981) Can. J. Physiol. Pharmacol. 59, 507-512. The murine pubic symphysis ligament in vivo bioassay measures relaxin's remodeling effect on connective tissue, Steinetz, B. G. et al. (1960) Endocrinology 67, 102. […] The MPS does responses indicate equipotence for natural human relaxin and H2(B2-33 A24) B Lys^4 B Ala^25, FIG. 3. […] All of the human analogues and natural sequence human relaxin are essentially indistinguishable in the MPS bioassay.

With `CC[C@H](C)[C@@H]1NC(=O)[C@H](C)NC(=O)[C@H]([C@@H](C)CC)NC(=O)[C@H](CCC(N)=O)NC(=O)[C@H](C)NC(=O)[C@H](CCCNC(=N)N)NC(=O)[C@H](C(C)C)NC(=O)[C@H](CC(C)C)NC(=O)[C@H](CCC(=O)O)NC(=O)[C@H](CCCNC(=N)N)NC(=O)CNC(=O)[C@@H](NC(=O)[C@H](CC(C)C)NC(=O)[C@H](CCCCN)NC(=O)[C@@H](NC(=O)[C@@H](NC(=O)[C@H](CCC(=O)O)NC(=O)[C@H](CCC(=O)O)NC(=O)[C@H](CCCCN)NC(=O)[C@H](Cc2c[nH]c3ccccc23)NC(=O)[C@@H](N)CO)C(C)C)[C@@H](C)CC)CSSC[C@@H]2NC(=O)[C@@H](NC(=O)[C@H](CCCCN)NC(=O)[C@H](CC(N)=O)NC(=O)[C@H](C)NC(=O)[C@H](CC(C)C)NC(=O)[C@H](C)NC(=O)[C@H](CO)NC(=O)[C@H](Cc3ccc(O)cc3)NC(=O)[C@H](CC(C)C)NC(=O)[C@@H]3CCC(=O)N3)CSSC[C@H](NC(=O)CNC(=O)[C@H](C(C)C)NC(=O)[C@H](Cc3c[nH]cn3)NC2=O)C(=O)N[C@@H]([C@@H](C)O)C(=O)N[C@@H](CCCCN)C(=O)N[C@@H](CCCNC(=N)N)C(=O)N[C@@H](CO)C(=O)N[C@@H](CC(C)C)C(=O)N[C@@H](C)C(=O)N[C@@H](CCCNC(=N)N)C(=O)N[C@@H](Cc2ccccc2)C(=O)N[C@H](C(=O)O)CSSC[C@@H](C(=O)NCC(=O)N[C@@H](C)C(=O)N[C@@H](CO)C(=O)N[C@H](C(=O)N[C@@H](Cc2c[nH]c3ccccc23)C(=O)N[C@@H](CO)C(=O)N[C@@H](CCCCN)C(=O)N[C@@H](CCCNC(=N)N)C(=O)N[C@@H](CO)C(=O)N[C@@H](CC(C)C)C(=O)O)[C@@H](C)O)NC1=O`, the “biological activity in the MPS assay (biological dose response comparison)” value is “biological activity”.

As to `CC[C@H](C)[C@@H]1NC(=O)[C@H](C)NC(=O)[C@H]([C@@H](C)CC)NC(=O)[C@H](CCC(N)=O)NC(=O)[C@H](C)NC(=O)[C@H](CCCNC(=N)N)NC(=O)[C@H](C(C)C)NC(=O)[C@H](CC(C)C)NC(=O)[C@H](CCC(=O)O)NC(=O)[C@H](CCCNC(=N)N)NC(=O)CNC(=O)[C@@H](NC(=O)[C@H](CC(C)C)NC(=O)[C@H](CCCCN)NC(=O)[C@@H](NC(=O)[C@@H](NC(=O)[C@H](CCC(=O)O)NC(=O)[C@H](CCC(=O)O)NC(=O)[C@H](CCCCN)NC(=O)[C@H](Cc2c[nH]c3ccccc23)NC(=O)[C@H](CO)NC(=O)[C@@H](N)CC(=O)O)C(C)C)[C@@H](C)CC)CSSC[C@@H]2NC(=O)[C@@H](NC(=O)[C@H](CCCCN)NC(=O)[C@H](CC(N)=O)NC(=O)[C@H](C)NC(=O)[C@H](CC(C)C)NC(=O)[C@H](C)NC(=O)[C@H](CO)NC(=O)[C@H](Cc3ccc(O)cc3)NC(=O)[C@H](CC(C)C)NC(=O)[C@@H]3CCC(=O)N3)CSSC[C@H](NC(=O)CNC(=O)[C@H](C(C)C)NC(=O)[C@H](Cc3c[nH]cn3)NC2=O)C(=O)N[C@@H]([C@@H](C)O)C(=O)N[C@@H](CCCCN)C(=O)N[C@@H](CCCNC(=N)N)C(=O)N[C@@H](CO)C(=O)N[C@@H](CC(C)C)C(=O)N[C@@H](C)C(=O)N[C@@H](CCCNC(=N)N)C(=O)N[C@@H](Cc2ccccc2)C(=O)N[C@H](C(=O)O)CSSC[C@@H](C(=O)NCC(=O)N[C@@H](C)C(=O)N[C@@H](CO)C(=O)N[C@H](C(=O)N[C@@H](Cc2c[nH]c3ccccc23)C(=O)N[C@@H](CO)C(=O)N[C@@H](CCCCN)C(=O)N[C@@H](CCCNC(=N)N)C(=O)N[C@@H](CO)C(=O)N[C@@H](CC(C)C)C(=O)O)[C@@H](C)O)NC1=O`, the “biological activity in the MPS assay (biological dose response comparison)” value was “biological activity”.

Turning to “porcine relaxin: Porcine relaxin, used for the standard curve in the RUC assay and compared in MPS (Relaxin B chain QSTNDFIKACGRELVRLWVEICGSVSWGRTAL; Relaxin A chain RMTLSEKCCQVGCIRKDIARLC; not fully specified; ends and bridges not checked; UniProt P01348 25-56; P01348 161-182, looked up) [reference compound]”, the “MPS dose response curve, slope / parallelism relative to the other relaxins” value (mouse, in vivo) is reported as “non-parallel response”.

The values are drawn from US4835251A, “Method of chain combination” (Genetech, Inc., priority 1986, dated 1989).
